Source: patent publication EP3753932A1, “SUBSTITUTED BICYCLIC DERIVATIVES HAVING MULTIMODAL ACTIVITY AGAINST PAIN” (priority 2019, dated 2020)
Read-outs that look alike come from different tables or passages of the source.

Key:
[1] = target: T1, Human µ-opioid receptor (Homo sapiens, UniProt P35372); assay: Human µ-opioid receptor radioligand assay ([3H]-DAMGO); assay type: binding
T1 construct: expressed in transfected cells; host or cells: CHO-K1
Experimental: Human µ-opioid receptor radioligand assay
Transfected CHO-K1 cell membranes (20 µg) were incubated with [^3H]-DAMGO (1 nM) in assay buffer containing Tris-HCl 50 mM, MgCl2 5 mM at pH 7.4. NBS (non-specific binding) was measured by adding 10 µM Naloxone. The binding of the test compound was measured at either one concentration (% inhibition at 1 or 10 µM) or five different concentrations to determine affinity values (Ki). Plates were incubated at 27 °C for 60 min. After the incubation period, the reaction mixture was then transferred to MultiScreen HTS, FC plates (Millipore), filtered and plates were washed 3 times with ice-cold 10 mM Tris-HCl (pH 7.4). Filters were dried and counted at approximately 40% efficiency in a MicroBeta scintillation counter (Perkin-Elmer) using EcoScint liquid scintillation cocktail.

[2] = target: Human α2δ-1 subunit of Cav2.2 calcium channel (Homo sapiens, UniProt P54289); assay: Human α2δ-1 subunit of Cav2.2 calcium channel assay ([3H]-Gabapentin binding)
Human α2δ-1 subunit of Cav2.2 calcium channel, sequence (P54289 25-1103): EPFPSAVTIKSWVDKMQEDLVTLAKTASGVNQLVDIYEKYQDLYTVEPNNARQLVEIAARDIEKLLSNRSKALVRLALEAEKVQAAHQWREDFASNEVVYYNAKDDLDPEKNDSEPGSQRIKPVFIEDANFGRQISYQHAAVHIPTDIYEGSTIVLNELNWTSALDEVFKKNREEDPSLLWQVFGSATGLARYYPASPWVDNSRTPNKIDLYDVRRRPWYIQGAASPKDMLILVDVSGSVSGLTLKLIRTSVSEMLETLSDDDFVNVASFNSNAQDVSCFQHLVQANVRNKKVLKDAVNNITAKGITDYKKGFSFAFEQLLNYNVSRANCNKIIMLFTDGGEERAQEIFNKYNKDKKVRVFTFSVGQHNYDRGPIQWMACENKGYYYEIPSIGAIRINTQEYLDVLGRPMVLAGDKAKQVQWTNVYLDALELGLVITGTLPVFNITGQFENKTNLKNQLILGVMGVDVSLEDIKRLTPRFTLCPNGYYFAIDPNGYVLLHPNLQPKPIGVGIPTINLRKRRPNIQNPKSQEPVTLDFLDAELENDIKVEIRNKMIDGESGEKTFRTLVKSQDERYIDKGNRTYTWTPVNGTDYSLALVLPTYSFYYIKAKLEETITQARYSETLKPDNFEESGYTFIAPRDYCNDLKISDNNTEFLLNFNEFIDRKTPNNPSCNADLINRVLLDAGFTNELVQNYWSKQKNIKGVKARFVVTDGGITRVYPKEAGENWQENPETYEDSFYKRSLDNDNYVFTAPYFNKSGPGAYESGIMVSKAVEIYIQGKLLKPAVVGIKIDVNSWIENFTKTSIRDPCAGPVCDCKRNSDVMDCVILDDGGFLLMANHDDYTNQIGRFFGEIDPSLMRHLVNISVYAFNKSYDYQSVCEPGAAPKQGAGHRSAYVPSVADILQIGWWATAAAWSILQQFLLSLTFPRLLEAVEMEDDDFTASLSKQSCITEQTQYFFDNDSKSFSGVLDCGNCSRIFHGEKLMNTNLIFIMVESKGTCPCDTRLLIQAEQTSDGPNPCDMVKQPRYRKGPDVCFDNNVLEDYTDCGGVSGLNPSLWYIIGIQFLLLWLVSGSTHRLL
Experimental: Human α2δ-1 subunit of Cav2.2 calcium channel assay
Human α2δ-1 enriched membranes (2.5 µg) were incubated with 15 nM of radiolabeled [3H]-Gabapentin in assay buffer containing Hepes-KOH 10mM, pH 7.4. NSB (non specific binding) was measured by adding 10 µM pregabalin. The binding of the test compound was measured at either one concentration (% inhibition at 1 or 10 µM) or five different concentrations to determine affinity values (Ki). After 60 min incubation at 27 °C, binding reaction was terminated by filtering through Multiscreen GF/C (Millipore) presoaked in 0.5 % polyethyleneimine in Vacuum Manifold Station, followed by 3 washes with ice-cold filtration buffer containing 50 mM Tris-HCl, pH 7.4. Filter plates were dried at 60 °C for 1 hour and 30 µl of scintillation cocktail were added to each well before radioactivity reading. Readings were performed in a Trilux 1450 Microbeta radioactive counter (Perkin Elmer).

[3] = human α2δ-1 enriched membranes, [3H]-Gabapentin 15 nM, read-out: α2δ-1 binding
[4] = transfected CHO-K1 cell membranes, [3H]-DAMGO 1 nM, read-out: µ-binding

T1 sequence (P35372 whole entry): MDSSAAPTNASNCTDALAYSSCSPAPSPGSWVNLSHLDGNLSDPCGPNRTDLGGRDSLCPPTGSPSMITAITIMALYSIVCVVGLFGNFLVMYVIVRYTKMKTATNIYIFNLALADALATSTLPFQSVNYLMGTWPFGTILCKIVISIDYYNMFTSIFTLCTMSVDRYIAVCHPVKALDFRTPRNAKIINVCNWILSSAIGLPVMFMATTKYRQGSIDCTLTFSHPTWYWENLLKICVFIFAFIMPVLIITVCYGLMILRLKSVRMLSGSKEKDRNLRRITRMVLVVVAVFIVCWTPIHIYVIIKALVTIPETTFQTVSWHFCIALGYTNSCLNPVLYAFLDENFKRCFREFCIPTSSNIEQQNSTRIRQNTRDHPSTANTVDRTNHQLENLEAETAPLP

SMILES | Ki [1] | Ki [2, 3] | Ki [1, 4] | Ki [2]
CCCC(c1cc2cc(CN3CCC(c4cccc(O)c4)(N(C)C)CC3)ccc2nc1CC)N1C[C@@H](C)N[C@@H](C)C1 (stereo partly drawn) [Example 22, 3-(4-(Dimethylamino)-1-((3-(1-((3S,5R)-3,5-dimethylpiperazin-1-yl)butyl)-2-ethylquinolin-6-yl)methyl)piperidin-4-yl)phenol] | < 100 nM | 500 to 5000 nM | – | –
CCCC(c1cnc2cc(N3CCC(c4cccc(O)c4)(N(C)C)CC3)ccc2n1)N1C[C@@H](C)N[C@@H](C)C1 (stereo partly drawn) [Example 32, 3-(4-(Dimethylamino)-1-(2-(1-((3S,5R)-3,5-dimethylpiperazin-1-yl)butyl)quinoxalin-6-yl)piperidin-4-yl)phenol] | < 100 nM | 500 to 5000 nM | – | –
CCCC(c1ccc2cc(CN3CCC(c4cccc(O)c4)(N(C)C)CC3)ccc2n1)N1C[C@@H](C)N[C@@H](C)C1 (stereo partly drawn) [Example 7, 3-(4-(Dimethylamino)-1-((2-(1-((3S,5R)-3,5-dimethylpiperazin-1-yl)butyl)quinolin-6-yl)methyl)piperidin-4-yl)phenol] | – | – | < 100 nM | < 500 nM
CCC[C@H](c1cc2ccc(CN3CCC(c4cccc(O)c4)(N(C)C)CC3)cc2nc1CC)N1C[C@@H](C)N[C@@H](C)C1 [Example 23, 3-(4-(Dimethylamino)-1-((3-((R)-1-((3S,5R)-3,5-dimethylpiperazin-1-yl)butyl)-2-ethylquinolin-7-yl)methyl)piperidin-4-yl)phenol] | – | – | < 100 nM | < 500 nM
CCC[C@H](c1cnc2ccc(CN3CCC(c4ccccc4)(N(C)C)CC3)cc2c1)N1C[C@@H](C)N[C@@H](C)C1 [Example 18, 1-((3-((R)-1-((3S,5R)-3,5-Dimethylpiperazin-1-yl)butyl)quinolin-6-yl)methyl)-N,N-dimethyl-4-phenylpiperidin-4-amine] | 100 to 500 nM | 500 to 5000 nM | – | –
CCCC(c1ccc2cc(N3CCC(c4cccc(O)c4)(N(C)C)CC3)ccc2c1)N1C[C@@H](C)N[C@@H](C)C1 (stereo partly drawn) [Example 1, 3-(4-(Dimethylamino)-1-(6-(1-((3S,5R)-3,5-dimethylpiperazin-1-yl)butyl)naphthalen-2-yl)piperidin-4-yl)phenol] | – | – | < 100 nM | > 5000 nM
CCC[C@H](c1cnc2cc(N3CCC(c4cccc(O)c4)(N(C)C)CC3)ccc2c1)N1C[C@@H](C)N[C@@H](C)C1 [Example 4, 3-(4-(Dimethylamino)-1-(3-((R)-1-((3S,5R)-3,5-dimethylpiperazin-1-yl)butyl)quinolin-7-yl)piperidin-4-yl)phenol] | < 100 nM | 500 to 5000 nM | – | –
CCCC(c1cc2ccc(N3CCC(c4cccc(O)c4)(N(C)C)CC3)cc2nc1CC)N1C[C@@H](C)N[C@@H](C)C1 (stereo partly drawn) [Example 20, 3-(4-(Dimethylamino)-1-(3-(1-((3S,5R)-3,5-dimethylpiperazin-1-yl)butyl)-2-ethylquinolin-7-yl)piperidin-4-yl)phenol] | – | – | < 100 nM | < 500 nM
CCC[C@H](c1ncc2cc(N3CCC(c4cccc(O)c4)(N(C)C)CC3)ccc2n1)N1C[C@@H](C)N[C@@H](C)C1 [Example 26, 3-(4-(Dimethylamino)-1-(2-((R)-1-((3S,5R)-3,5-dimethylpiperazin-1-yl)butyl)quinazolin-6-yl)piperidin-4-yl)phenol] | – | – | < 100 nM | > 5000 nM
CCC[C@@H](c1nc2ccc(CN3CCC(c4cccc(O)c4)(N(C)C)CC3)cc2nc1CC)N1C[C@@H](C)N[C@@H](C)C1 [Example 42, 3-(4-(Dimethylamino)-1-((2-((S)-1-((3S,5R)-3,5-dimethylpiperazin-1-yl)butyl)-3-ethylquinoxalin-6-yl)methyl)piperidin-4-yl)phenol] | < 100 nM | 500 to 5000 nM | – | –
CCCC(c1cnc2cc(N3CCC(c4cccc(O)c4)(N(C)C)CC3)ccc2c1)N1C[C@@H](C)N[C@@H](C)C1 (stereo partly drawn) [Example 2, 3-(4-(Dimethylamino)-1-(3-(1-((3S,5R)-3,5-dimethylpiperazin-1-yl)butyl)quinolin-7-yl)piperidin-4-yl)phenol] | < 100 nM | 500 to 5000 nM | – | –
CCC[C@H](c1cnc2ccc(N3CCC(c4cccc(O)c4)(N(C)C)CC3)cc2n1)N1C[C@@H](C)N[C@@H](C)C1 [Example 34, 3-(4-(Dimethylamino)-1-(3-((R)-1-((3S,5R)-3,5-dimethylpiperazin-1-yl)butyl)quinoxalin-6-yl)piperidin-4-yl)phenol] | – | – | < 100 nM | < 500 nM
CCCC(c1cnc2cc(CN3CCC(c4cccc(O)c4)(N(C)C)CC3)ccc2c1)N1C[C@@H](C)N[C@@H](C)C1 (stereo partly drawn) [Example 6, 3-(4-(Dimethylamino)-1-((3-(1-((3S,5R)-3,5-dimethylpiperazin-1-yl)butyl)quinolin-7-yl)methyl)piperidin-4-yl)phenol] | – | – | < 100 nM | < 500 nM
CCC[C@@H](c1ncc2cc(N3CCC(c4cccc(O)c4)(N(C)C)CC3)ccc2n1)N1C[C@@H](C)N[C@@H](C)C1 [Example 27, 3-(4-(Dimethylamino)-1-(2-((S)-1-((3S,5R)-3,5-dimethylpiperazin-1-yl)butyl)quinazolin-6-yl)piperidin-4-yl)phenol] | – | – | < 100 nM | > 5000 nM
CCCC(c1cc(OC)c2cc(N3CCC(c4ccccc4)(N(C)C)CC3)ccc2n1)N1C[C@@H](C)N[C@@H](C)C1 (stereo partly drawn) [Example 31, 1-(2-(1-((3S,5R)-3,5-Dimethylpiperazin-1-yl)butyl)-4-methoxyquinolin-6-yl)-N,N-dimethyl-4-phenylpiperidin-4-amine] | – | – | 100 to 500 nM | < 500 nM
CCC[C@H](c1ccc2cc(CN3CCC(c4cccc(O)c4)(N(C)C)CC3)ccc2n1)N1C[C@@H](C)N[C@@H](C)C1 [Example 10, 3-(4-(Dimethylamino)-1-((2-((R)-1-((3S,5R)-3,5-dimethylpiperazin-1-yl)butyl)quinolin-6-yl)methyl)piperidin-4-yl)phenol] | – | – | < 100 nM | < 500 nM
CCCC(c1nc2ccc(CN3CCC(c4cccc(O)c4)(N(C)C)CC3)cc2nc1CC)N1C[C@@H](C)N[C@@H](C)C1 (stereo partly drawn) [Example 40, 3-(4-(Dimethylamino)-1-((2-(1-((3S,5R)-3,5-dimethylpiperazin-1-yl)butyl)-3-ethylquinoxalin-6-yl)methyl)piperidin-4-yl)phenol] | – | – | < 100 nM | < 500 nM
